The IC50 is the concentration at which inhibition is half-maximal. Read a high IC50 as weaker potency in that assay.

Counter-ions that a name gives are not always drawn. Some results are limits rather than exact numbers.

Chain of GCN2 (Q9P2K8 whole entry, species assumed): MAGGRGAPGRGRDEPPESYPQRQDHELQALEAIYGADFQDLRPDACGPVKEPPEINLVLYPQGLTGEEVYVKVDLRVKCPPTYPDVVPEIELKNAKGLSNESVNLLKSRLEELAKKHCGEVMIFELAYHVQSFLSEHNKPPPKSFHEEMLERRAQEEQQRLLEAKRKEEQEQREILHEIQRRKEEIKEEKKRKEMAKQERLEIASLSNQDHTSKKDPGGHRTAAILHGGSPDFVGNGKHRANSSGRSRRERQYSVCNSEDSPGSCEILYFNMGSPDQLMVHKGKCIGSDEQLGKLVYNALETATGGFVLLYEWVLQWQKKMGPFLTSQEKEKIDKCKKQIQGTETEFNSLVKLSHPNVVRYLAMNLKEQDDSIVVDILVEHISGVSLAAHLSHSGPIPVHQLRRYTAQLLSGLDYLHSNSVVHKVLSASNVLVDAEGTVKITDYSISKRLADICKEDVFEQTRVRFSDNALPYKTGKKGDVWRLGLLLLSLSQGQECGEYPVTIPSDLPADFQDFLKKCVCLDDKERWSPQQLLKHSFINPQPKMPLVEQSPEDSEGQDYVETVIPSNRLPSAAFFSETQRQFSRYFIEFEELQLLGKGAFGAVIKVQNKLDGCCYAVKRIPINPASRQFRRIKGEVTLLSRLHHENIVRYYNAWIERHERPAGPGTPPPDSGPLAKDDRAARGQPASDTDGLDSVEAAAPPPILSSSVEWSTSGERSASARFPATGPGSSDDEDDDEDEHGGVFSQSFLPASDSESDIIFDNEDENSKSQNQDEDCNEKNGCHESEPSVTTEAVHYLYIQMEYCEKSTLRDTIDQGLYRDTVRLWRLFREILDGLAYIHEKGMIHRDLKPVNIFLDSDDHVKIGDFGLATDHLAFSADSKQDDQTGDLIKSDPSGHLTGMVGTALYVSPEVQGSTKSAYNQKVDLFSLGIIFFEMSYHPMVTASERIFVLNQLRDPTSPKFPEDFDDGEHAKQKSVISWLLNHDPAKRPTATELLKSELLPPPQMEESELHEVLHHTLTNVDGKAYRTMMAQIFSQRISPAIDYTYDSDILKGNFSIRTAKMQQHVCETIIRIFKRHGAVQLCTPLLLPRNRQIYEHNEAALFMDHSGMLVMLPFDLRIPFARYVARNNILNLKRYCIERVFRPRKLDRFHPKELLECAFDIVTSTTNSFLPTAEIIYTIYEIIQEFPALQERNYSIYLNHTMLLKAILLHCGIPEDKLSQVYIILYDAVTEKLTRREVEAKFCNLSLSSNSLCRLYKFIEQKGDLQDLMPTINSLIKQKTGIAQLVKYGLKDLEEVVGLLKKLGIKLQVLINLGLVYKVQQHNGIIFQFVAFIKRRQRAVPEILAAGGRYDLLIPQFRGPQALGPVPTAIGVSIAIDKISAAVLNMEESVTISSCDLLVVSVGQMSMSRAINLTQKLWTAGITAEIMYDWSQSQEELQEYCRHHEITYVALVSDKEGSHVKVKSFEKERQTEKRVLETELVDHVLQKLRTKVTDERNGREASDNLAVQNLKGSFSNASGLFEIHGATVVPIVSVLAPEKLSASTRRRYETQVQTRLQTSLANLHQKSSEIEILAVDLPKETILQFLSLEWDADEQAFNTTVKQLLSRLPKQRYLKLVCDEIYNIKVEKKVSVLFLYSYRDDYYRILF

For the assay, the target named is GCN2 (Homo sapiens, UniProt Q9P2K8). The assay can be described thus: GCN2 enzyme assay (TR-FRET Lanthascreen, GFP-eIF2alpha phosphorylation). In kind it is biochemical. The note with it: 10 μM ATP, 80 nM GFP-eIF2a substrate, 30 nM GCN2, room temperature. From the text:
GCN2: Assay Principle & Conditions
This assay can quantificate the activity of the serin kinase GCN2 (general control non-derepressible-2).
This kinase is involved in the stress metabolism of cells. It is activated upon starvation (amino acid depletion). Its natural substrate is eIF2a (eukaryotic initiation factor 2 alpha subunit), a translation factor, which gets activated (phosphorylated) by GCN2 in case of an amino acid bottleneck in the cells. This in turn leads to a halt of the protein synthesis. Inhibition of GCN2 results in stopping this mechanism: The cell can not stop protein production upon “starvation” stress.
The assay is run in two steps: the enzymatic reaction and the detection step. In the first step GCN2 is incubated with 10 μM ATP and 80 nM of the GFP-labelled substrate elF2alpha at room temperature.
The enzymatic reaction is stopped by addition of EDTA. The amount of phosphorylated elF2alpha is determined by TR-FRET (Lanthascreen): A complex is formed consisting of antibody and GFP labelled phospho-eIF2a, which allows a FRET upon exitation at 340 nm.
Final Concentrations in the Enzymatic Reaction
Take `O[C@H]1CC[C@H](Nc2ncc3ncn(-c4ccc(I)c(F)c4)c3n2)C1` (relative stereo) [Compound A27, (trans)-3-[9-(3-fluoro-4-iodo-phenyl)-9H-purin-2-ylamino]-cyclopentanol]: the IC50 lay in the range of 5000 to 10000 nM.

`COCCn1cc(-c2ccc(-n3cnc4cnc(N[C@H]5CC[C@H](O)C5)nc43)cc2F)cn1` (relative stereo) [Compound A29, (trans)-3-(9-{3-fluoro-4-[1-(2-methoxy-ethyl)-1H-pyrazol-4-yl]-phenyl}-9H-purin-2-ylamino)-cyclopentanol] returned an IC50 of 1000 to 5000 nM.

`Cn1cc(-c2ccc(-n3cnc4cnc(N[C@@H]5CC[C@@H](O)C5)nc43)cc2)cn1` (relative stereo) [Compound A30, (trans)-3-{9-[4-(1-Methyl-1H-pyrazol-4-yl)-phenyl]-9H-purin-2-ylamino}-cyclopentanol] displayed an IC50 of 1000 to 5000 nM.

Compound `CCOc1ccc(-n2cnc3cnc(Nc4cnn(C5CCN(C)CC5)c4)nc32)cc1` [Compound A1, 9-(4-ethoxyphenyl)-N-(1-(1-methylpiperidin-4-yl)-1H-pyrazol-4-yl)-9H-purin-2-amine] came in with an IC50 below 1000 nM.

On to `COCCOc1ccc(-n2cnc3cnc(Nc4cnn(C5CCN(C)CC5)c4)nc32)cc1` [Compound A2, 9-(4-(2-methoxyethoxy)phenyl)-N-(1-(1-methylpiperidin-4-yl)-1H-pyrazol-4-yl)-9H-purin-2-amine], for which the IC50 was below 1000 nM.

With `NC(=O)c1ccc(-n2cnc3cnc(Nc4cnn(C5CCOCC5)c4)nc32)cc1` [Compound A3, 4-(2-((1-(tetrahydro-2H-pyran-4-yl)-1H-pyrazol-4-yl)amino)-9H-purin-9-yl)benzamide], the IC50 is below 1000 nM.

`CCn1cc(Nc2ncc3ncn(-c4cnn(CC)c4)c3n2)cn1` [Compound A4, N,9-bis-(1-ethyl-1H-pyrazol-4-yl)-9H-purin-2-amine] showed an IC50 below 1000 nM.

The compound `CCn1cc(-n2cnc3cnc(Nc4cnn(C5CCOCC5)c4)nc32)cn1` [Compound A5, 9-(1-ethyl-1H-pyrazol-4-yl)-N-(1-(tetrahydro-2H-pyran-4-yl)-1H-pyrazol-4-yl)-9H-purin-2-amine] showed an IC50 below 1000 nM.

For the compound `CCOc1ccc(-n2c(C)nc3cnc(Nc4cnn(C5CCN(C)CC5)c4)nc32)cc1` [Compound A6, 9-(4-ethoxyphenyl)-8-methyl-N-(1-(1-methylpiperidin-4-yl)-1H-pyrazol-4-yl)-9H-purin-2-amine], the IC50 lay in the range of 1000 to 5000 nM.

Compound `CCn1cc(Nc2ncc3ncn(-c4ccc5c(c4)NC(=O)C5(C)C)c3n2)cn1` [Compound A9, 6-(2-((1-ethyl-1H-pyrazol-4-yl)amino)-9H-purin-9-yl)-3,3-dimethylindolin-2-one] yielded an IC50 below 1000 nM.

For the compound `CCOc1ccc(-n2cnc3cnc(Nc4cnn(CCn5cccn5)c4)nc32)cc1` [Compound A10, N-(1-(2-(1H-pyrazol-1-yl)ethyl)-1H-pyrazol-4-yl)-9-(4-ethoxyphenyl)-9H-purin-2-amine], the IC50 was below 1000 nM.

The compound `CCOc1ccc(-n2cnc3cnc(Nc4cnn(CCCC5CCNCC5)c4)nc32)cc1` [Compound A11, 9-(4-ethoxyphenyl)-N-(1-(3-(piperidin-4-yl)propyl)-1H-pyrazol-4-yl)-9H-purin-2-amine hydrochloride] gave an IC50 below 1000 nM.

Turning to `Fc1cc(-n2cnc3cnc(Nc4cnn(C5CCOCC5)c4)nc32)ccc1Cl` [Compound A12, 9-(4-chloro-3-fluorophenyl)-N-(1-(tetrahydro-2H-pyran-4-yl)-1H-pyrazol-4-yl)-9H-purine-2-amine], the IC50 is below 1000 nM.

`COCCN1CCC(n2cc(Nc3ncc4ncn(-c5ccc(OC)cc5)c4n3)cn2)CC1` [Compound A13, N-(1-(1-(2-methoxyethyl)piperidin-4-yl)-1H-pyrazol-4-yl)-9-(4-methoxyphenyl)-9H-purin-2-amine] yielded an IC50 below 1000 nM.

Consider `COc1ccc(-n2cnc3cnc(Nc4cnn(C5CCN(C)CC5)c4)nc32)cc1` [Compound A16, 9-(4-methoxyphenyl)-N-(1-(1-methylpiperidin-4-yl)-1H-pyrazol-4-yl)-9H-purin-2-amine], for which the IC50 was below 1000 nM.

`CCOc1ccc(-n2cnc3cnc(Nc4cnn(C5CCC(N)CC5)c4)nc32)cc1` (stereo not shown) [Compound A17, N-(1-(4-aminocyclohexyl)-1H-pyrazol-4-yl)-9-(4-ethoxyphenyl)-9H-purin-2-amine hydrochloride] yielded an IC50 below 1000 nM.

Consider `COc1ccc(-n2cnc3cnc(Nc4cn[nH]c4)nc32)cc1` [Compound A18, [9-(4-methoxy-phenyl)-9H-purin-2-yl]-(1H-pyrazol-4-yl)-amine], for which the IC50 is below 1000 nM.

Regarding `COc1ccc(-n2cnc3cnc(Nc4ccn(C)n4)nc32)cc1` [Compound A19, [9-(4-methoxy-phenyl)-9H-purin-2-yl]-(1-methyl-1H-pyrazol-3-yl)-amine], the IC50 lay within 1000 to 5000 nM.

Turning to `COc1ccc(-n2cnc3cnc(Nc4cnn(-c5ccccc5)c4)nc32)cc1` [Compound A20, [9-(4-methoxy-phenyl)-9H-purin-2-yl]-(1-phenyl-1H-pyrazol-4-yl)-amine], the IC50 lay in the range of 5000 to 10000 nM.

Turning to `Cn1cc(Nc2ncc3ncn(-c4ccc(-c5cnn(C)c5)cc4)c3n2)cn1` [Compound A21, (1-methyl-1H-pyrazol-4-yl)-{9-[4-(1-methyl-1H-pyrazol-4-yl)-phenyl]-9H-purin-2-yl}-amine], the IC50 was below 1000 nM.

In the case of `CCn1cc(Nc2ncc3ncn(-c4ccc(C(=O)NCC(O)CO)cc4)c3n2)cn1` (stereo not shown) [Compound A22, N-(2,3-dihydroxy-propyl)-4-[2-(1-ethyl-1H-pyrazol-4-ylamino)-purin-9-yl]-benzamide], the half-maximal inhibitory concentration (IC50) fell in the range of 1000 to 5000 nM.

As to `Cn1cc(Nc2ncc3ncn(-c4ccc(-c5cnn(C6CCNCC6)c5)cc4)c3n2)cn1` [Compound A23, (1-methyl-1H-pyrazol-4-yl)-{9-[4-(1-piperidin-4-yl-1H-pyrazol-4-yl)-phenyl]-9H-purin-2-yl}-amine], the IC50 was below 1000 nM.

As for `Cn1cc(Nc2ncc3nc(N)n(-c4ccc(-c5cnn(C)c5)cc4)c3n2)cn1` [Compound A24, N2-(1-methyl-1H-pyrazol-4-yl)-9-[4-(1-methyl-1H-pyrazol-4-yl)-phenyl]-9H-purine-2,8-diamine], the IC50 is 1000 to 5000 nM.

In turn, `CCn1cc(Nc2ncc3nc(N)n(-c4ccc(C(=O)NCCO)cc4)c3n2)cn1` [Compound A25, 4-[8-amino-2-(1-ethyl-1H-pyrazol-4-ylamino)-purin-9-yl]-N-(2-hydroxy-ethyl)-benzamide] came in with an IC50 of 5000 to 10000 nM.

`Cn1cc(Nc2ncc3nc(N)n(-c4ccc(-c5cnn(C6CCNCC6)c5)cc4)c3n2)cn1` [Compound A26, N2-(1-methyl-1H-pyrazol-4-yl)-9-[4-(1-piperidin-4-yl-1H-pyrazol-4-yl)-phenyl]-9H-purine-2,8-diamine] yielded an IC50 of 1000 to 5000 nM.

In the case of `NC(=O)[C@@H]1CC[C@@H](Nc2ncc3ncn(-c4ccc(I)c(F)c4)c3n2)C1` [Compound A31, (1R,3R)-3-[9-(3-fluoro-4-iodo-phenyl)-9H-purin-2-ylamino]-cyclopentanecarboxylic acid amide], the IC50 was 1000 to 5000 nM.

As to `CCOc1ccc(-n2cnc3cnc(N[C@@H]4CC[C@@H](C(N)=O)C4)nc32)cc1` [Compound A32, (1R,3R)-3-[9-(4-ethoxy-phenyl)-9H-purin-2-ylamino]-cyclopentanecarboxylic acid amide], the IC50 was in the range of 1000 to 5000 nM.

`NC(=O)[C@@H]1CC[C@@H](Nc2ncc3ncn(-c4ccc(I)cc4)c3n2)C1` [Compound A33, (1R,3R)-3-[9-(4-iodo-phenyl)-9H-purin-2-ylamino]-cyclopentanecarboxylic acid amide] came in with an IC50 of 1000 to 5000 nM.

On to `COCCOc1ccc(-n2cnc3cnc(N[C@@H]4CC[C@@H](C(N)=O)C4)nc32)cc1` [Compound A34, (1R,3R)-3-{9-[4-(2-methoxy-ethoxy)-phenyl]-9H-purin-2-ylamino}-cyclopentanecarboxylic acid amide], for which the IC50 fell in the range of 1000 to 5000 nM.

`COCCn1cc(-c2ccc(-n3cnc4cnc(N[C@@H]5CC[C@@H](C(N)=O)C5)nc43)cc2F)cn1` [Compound A35, (1R,3R)-3-(9-{3-fluoro-4-[1-(2-methoxy-ethyl)-1H-pyrazol-4-yl]-phenyl}-9H-purin-2-ylamino)-cyclopentanecarboxylic acid amide] came in with an IC50 below 1000 nM.

In turn, `CCOCCn1cc(-c2ccc(-n3cnc4cnc(N[C@@H]5CC[C@@H](C(N)=O)C5)nc43)cc2)cn1` [Compound A36, (1R,3R)-3-(9-{4-[1-(2-ethoxy-ethyl)-1H-pyrazol-4-yl]-phenyl}-9H-purin-2-ylamino)-cyclopentanecarboxylic acid amide] displayed an IC50 below 1000 nM.

In turn, `Cc1ccc2cc(-n3cnc4cnc(N[C@@H]5CC[C@@H](C(N)=O)C5)nc43)ccc2n1` [Compound A37, (1R,3R)-3-[9-(2-methyl-quinolin-6-yl)-9H-purin-2-ylamino]-cyclopentanecarboxylic acid amide] yielded an IC50 below 1000 nM.

For the compound `COCCn1cc(-c2ccc(-n3cnc4cnc(N[C@@H]5CCNC5)nc43)cc2)cn1` [Compound A38, (9-{4-[1-(2-methoxy-ethyl)-1H-pyrazol-4-yl]-phenyl}-9H-purin-2-yl)-(R)-pyrrolidin-3-yl-amine], the IC50 lay in the range of 5000 to 10000 nM.

Compound `COCCn1cc(-c2ccc(-n3cnc4cnc(N[C@@H]5CCN(C(=O)CCN6CCN(C)CC6)C5)nc43)cc2)cn1` [Compound A39, 1-[(R)-3-(9-{4-[1-(2-methoxy-ethyl)-1H-pyrazol-4-yl]-phenyl}-9H-purin-2-ylamino)-pyrrolidin-1-yl]-3-(4-methyl-piperazin-1-yl)-propan-1-one] came in with an IC50 of 1000 to 5000 nM.

(Values after patent US9617266B2, “Imidazopyrimidine derivatives” (Merck Patent GmbH, priority 2013, dated 2017).)
